One block for each molecule: values may come before it.
Experiments:
[1] = biological target: T1, Muscarinic acetylcholine receptor M2 (Homo sapiens) (UniProt P08172); experiment: Ability to displace [3H]N-methylscopolamine binding to M2 human recombinant muscarinic receptor in CHO cells at concentration 10 uM; assay type: cell-based
T1 sequence (whole entry): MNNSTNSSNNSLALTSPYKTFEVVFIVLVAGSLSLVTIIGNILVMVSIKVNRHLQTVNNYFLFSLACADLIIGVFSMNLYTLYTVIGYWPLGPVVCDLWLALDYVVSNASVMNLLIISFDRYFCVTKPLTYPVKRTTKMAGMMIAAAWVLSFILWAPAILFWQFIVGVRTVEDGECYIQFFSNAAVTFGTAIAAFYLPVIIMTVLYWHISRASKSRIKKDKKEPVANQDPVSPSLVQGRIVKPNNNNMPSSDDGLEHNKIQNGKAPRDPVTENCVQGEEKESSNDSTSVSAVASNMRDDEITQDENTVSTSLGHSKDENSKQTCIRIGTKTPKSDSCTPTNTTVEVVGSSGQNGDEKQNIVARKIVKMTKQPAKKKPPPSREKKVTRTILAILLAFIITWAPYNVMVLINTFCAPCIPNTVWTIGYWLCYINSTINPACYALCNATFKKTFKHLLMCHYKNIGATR

[2] = biological target: T2, Muscarinic acetylcholine receptor M1 (Homo sapiens) (UniProt P11229); experiment: Ability to displace [3H]N-methylscopolamine binding to M1 human recombinant muscarinic receptor in CHO cells at concentration 1 uM; assay type: cell-based
T2 sequence (whole entry): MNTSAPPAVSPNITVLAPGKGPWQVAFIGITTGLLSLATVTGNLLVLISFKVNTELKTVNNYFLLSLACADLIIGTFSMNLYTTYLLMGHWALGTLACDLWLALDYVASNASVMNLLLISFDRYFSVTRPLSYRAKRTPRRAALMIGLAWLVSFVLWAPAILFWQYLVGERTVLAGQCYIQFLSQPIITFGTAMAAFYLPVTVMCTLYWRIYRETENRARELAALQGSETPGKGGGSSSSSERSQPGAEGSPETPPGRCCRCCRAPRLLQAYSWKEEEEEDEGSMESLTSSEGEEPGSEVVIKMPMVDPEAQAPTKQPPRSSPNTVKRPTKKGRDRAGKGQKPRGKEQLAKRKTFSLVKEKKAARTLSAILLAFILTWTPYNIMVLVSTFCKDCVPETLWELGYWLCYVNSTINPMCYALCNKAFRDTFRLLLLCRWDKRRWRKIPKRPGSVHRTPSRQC

[3] = biological target: Muscarinic acetylcholine receptor M3 (Homo sapiens) (UniProt P20309); experiment: Ability to displace [3H]N-methylscopolamine binding to M3 human recombinant muscarinic receptor in CHO cells at concentration 1 uM; assay type: cell-based
[4] = biological target: T2, Muscarinic acetylcholine receptor M1 (Homo sapiens); experiment: Ability to displace [3H]N-methylscopolamine binding to M1 human recombinant muscarinic receptor in CHO cells at concentration 10 uM; assay type: cell-based
[5] = biological target: Muscarinic acetylcholine receptor M3 (Homo sapiens) (UniProt P20309); experiment: Ability to displace [3H]N-methylscopolamine binding to M3 human recombinant muscarinic receptor in CHO cells at concentration 10 uM; assay type: cell-based
[6] = biological target: T1, Muscarinic acetylcholine receptor M2 (Homo sapiens); experiment: Ability to displace [3H]N-methylscopolamine binding to M2 human recombinant muscarinic receptor in CHO cells at concentration 1 uM; assay type: cell-based
[7] = biological target: T3, Neuronal acetylcholine receptor (Rattus norvegicus) (UniProt P04757+P09483+P12389+P12390+P12392+P43144+Q9JLB5+P12391+P43143+P20420+Q05941); experiment: Ability to displace [3H]cytisine binding to nicotinic receptor in synaptic membrane fractions from rat cerebral cortices at a concentration of 10 uM.; assay type: cell membranes
[8] = biological target: T4, Muscarinic acetylcholine receptor M1 (Homo sapiens, UniProt P11229); experiment: The compound was tested for its binding affinity against M1 human recombinant muscarinic receptor in CHO cells.; assay type: cell-based
T4 sequence (P11229 whole entry): T2 sequence (whole entry)

[9] = biological target: T3, Neuronal acetylcholine receptor (Rattus norvegicus); experiment: Ability to displace [3H]cytisine binding to Nicotinic acetylcholine receptor in synaptic membrane fractions from rat cerebral cortices at a concentration of 10 uM.; assay type: cell membranes

Sequence of Muscarinic acetylcholine receptor M3 (Homo sapiens) (P20309 whole entry, looked up): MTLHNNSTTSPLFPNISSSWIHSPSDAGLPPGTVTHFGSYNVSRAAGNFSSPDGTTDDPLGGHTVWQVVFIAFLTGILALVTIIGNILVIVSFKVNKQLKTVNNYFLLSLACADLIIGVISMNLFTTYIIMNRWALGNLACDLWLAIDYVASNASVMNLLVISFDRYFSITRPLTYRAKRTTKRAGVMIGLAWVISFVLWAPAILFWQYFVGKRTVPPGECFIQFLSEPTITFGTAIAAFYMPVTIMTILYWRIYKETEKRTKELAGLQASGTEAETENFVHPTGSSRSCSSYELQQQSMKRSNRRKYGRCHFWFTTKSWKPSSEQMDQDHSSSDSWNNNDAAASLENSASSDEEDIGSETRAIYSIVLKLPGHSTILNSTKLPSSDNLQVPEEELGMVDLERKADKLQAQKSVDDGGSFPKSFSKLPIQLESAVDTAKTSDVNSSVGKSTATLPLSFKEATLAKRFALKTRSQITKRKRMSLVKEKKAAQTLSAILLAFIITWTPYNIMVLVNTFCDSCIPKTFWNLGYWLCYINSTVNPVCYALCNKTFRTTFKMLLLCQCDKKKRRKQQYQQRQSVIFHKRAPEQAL

SMILES: Oc1ccc(-c2cc(/C=C3\CN4CCC3C4)on2)cc1 (configuration not stated)
- inhibition [1]: 10%
- inhibition [2]: 0%
- inhibition [3]: 10%
- inhibition [4]: 0%
- inhibition [5]: 20%
- inhibition [6]: 1%
- inhibition [7]: 36%

SMILES: COc1ccc(COc2ccc(-c3cc(/C=C4/CN5CCC4CC5)on3)cc2OCc2ccc(OC)cc2)cc1
- inhibition [1]: 89%
- IC50 [8]: 247 nM
- inhibition [2]: 85%
- inhibition [3]: 44%
- inhibition [4]: 100%
- inhibition [5]: 94%
- inhibition [6]: 27%
- inhibition [7]: 0%

SMILES: COc1ccc(-c2cc(/C=C3/CN4CCC3C4)on2)cc1 (configuration not stated)
- inhibition [1]: 19%
- inhibition [9]: 58%
- inhibition [2]: 8%
- inhibition [3]: 0%
- inhibition [4]: 45%
- inhibition [5]: 0%
- inhibition [6]: 15%

SMILES: COc1ccc(COc2ccc(-c3cc(/C=C4\CN5CCC4C5)on3)cc2OCc2ccc(OC)cc2)cc1 (configuration not stated)
- inhibition [1]: 95%
- IC50 [8]: 114 nM
- inhibition [2]: 87%
- inhibition [3]: 88%
- inhibition [4]: 100%
- inhibition [5]: 98%
- inhibition [6]: 77%
- inhibition [7]: 0%

- inhibition [2]: 39%
- inhibition [4]: 66%
- inhibition [7]: 0%
SMILES: COc1ccc(COc2ccc(-c3cc(/C=C4/CN5CCC4C5)on3)cc2)cc1 (configuration not stated)

SMILES: COc1ccc(COc2ccc(-c3cc(/C=C4/CN5CCC4CC5)on3)cc2)cc1
- inhibition [1]: 83%
- IC50 [8]: 250 nM
- inhibition [2]: 89%
- inhibition [3]: 22%
- inhibition [4]: 93%
- inhibition [5]: 52%
- inhibition [6]: 26%
- inhibition [7]: 0%

- inhibition [1]: 23%
- inhibition [2]: 0%
- inhibition [3]: 26%
- inhibition [4]: 58%
- inhibition [5]: 35%
- inhibition [6]: 3%
- inhibition [7]: 74%
SMILES: CC(C)(C)OC(=O)Nc1ccc(-c2cc(/C=C3/CN4CCC3C4)on2)cc1 (configuration not stated)

SMILES: COc1ccc(COc2ccc(-c3cc(/C=C4/CN5CCC4C5)on3)cc2OCc2ccc(OC)cc2)cc1 (configuration not stated)
- inhibition [1]: 78%
- IC50 [8]: 1230 nM
- inhibition [2]: 39%
- inhibition [3]: 9%
- inhibition [4]: 91%
- inhibition [5]: 82%
- inhibition [6]: 24%
- inhibition [7]: 0%

SMILES: Oc1ccc(-c2cc(/C=C3\CN4CCC3C4)on2)cc1O (configuration not stated)
- inhibition [1]: 0%
- inhibition [2]: 0%
- inhibition [3]: 0%
- inhibition [4]: 0%
- inhibition [5]: 0%
- inhibition [6]: 0%

SMILES: Fc1ccc(-c2cc(/C=C3/CN4CCC3CC4)on2)cc1
- inhibition [2]: 0%
- inhibition [4]: 6%
- inhibition [7]: 19%

SMILES: Fc1ccc(-c2cc(/C=C3\CN4CCC3CC4)on2)cc1
- inhibition [1]: 22%
- inhibition [2]: 0%
- inhibition [3]: 0%
- inhibition [4]: 0%
- inhibition [5]: 10%
- inhibition [6]: 13%
- inhibition [7]: 19%

SMILES: CC(C)(C)OC(=O)Nc1ccc(-c2cc(/C=C3\CN4CCC3CC4)on2)cc1
- inhibition [1]: 36%
- IC50 [8]: > 10 nM
- inhibition [2]: 12%
- inhibition [3]: 5%
- inhibition [4]: 59%
- inhibition [5]: 41%
- inhibition [6]: 14%
- inhibition [7]: 64%

SMILES: C(=C1/CN2CCC1CC2)/c1cc(-c2ccccc2)no1
- inhibition [1]: 26%
- inhibition [2]: 0%
- inhibition [3]: 5%
- inhibition [4]: 13%
- inhibition [5]: 17%
- inhibition [6]: 3%

SMILES: C(=C1\CN2CCC1CC2)/c1cc(-c2ccccc2)no1
- inhibition [1]: 38%
- inhibition [2]: 7%
- inhibition [3]: 12%
- inhibition [4]: 51%
- inhibition [5]: 48%
- inhibition [6]: 0%
- inhibition [7]: 48%

SMILES: CC(C)(C)OC(=O)Nc1ccc(-c2cc(/C=C3/CN4CCC3CC4)on2)cc1
- inhibition [1]: 67%
- IC50 [8]: 806 nM
- inhibition [2]: 57%
- inhibition [3]: 31%
- inhibition [4]: 95%
- inhibition [5]: 87%
- inhibition [6]: 16%
- inhibition [7]: 43%

- inhibition [9]: 0%
- inhibition [2]: 69%
- inhibition [4]: 84%
SMILES: COc1ccc(COc2ccc(-c3cc(/C=C4\CN5CCC4C5)on3)cc2)cc1 (configuration not stated)

SMILES: Oc1ccc(-c2cc(/C=C3/CN4CCC3C4)on2)cc1O (configuration not stated)
- inhibition [1]: 9%
- inhibition [2]: 0%
- inhibition [3]: 0%
- inhibition [4]: 16%
- inhibition [5]: 0%
- inhibition [6]: 6%
- inhibition [7]: 64%

SMILES: COc1ccc(COc2ccc(-c3cc(/C=C4\CN5CCC4CC5)on3)cc2OCc2ccc(OC)cc2)cc1
- inhibition [1]: 92%
- IC50 [8]: 260 nM
- inhibition [2]: 85%
- inhibition [3]: 76%
- inhibition [4]: 100%
- inhibition [5]: 98%
- inhibition [6]: 49%
- inhibition [7]: 0%

SMILES: Oc1ccc(-c2cc(/C=C3/CN4CCC3C4)on2)cc1 (configuration not stated)
- inhibition [1]: 3%
- inhibition [2]: 0%
- inhibition [3]: 0%
- inhibition [4]: 26%
- inhibition [5]: 11%
- inhibition [6]: 6%
- inhibition [7]: 81%

SMILES: COc1ccc(-c2cc(/C=C3\CN4CCC3CC4)on2)cc1OC
- inhibition [1]: 22%
- inhibition [2]: 3%
- inhibition [3]: 0%
- inhibition [4]: 22%
- inhibition [5]: 7%
- inhibition [6]: 14%
- inhibition [7]: 58%

SMILES: Cc1ccc(-c2cc(/C=C3/CN4CCC3CC4)on2)cc1
- inhibition [1]: 14%
- inhibition [2]: 7%
- inhibition [3]: 3%
- inhibition [4]: 7%
- inhibition [5]: 15%
- inhibition [6]: 2%
- inhibition [7]: 70%

SMILES: Oc1ccc(-c2cc(/C=C3\CN4CCC3CC4)on2)cc1
- inhibition [1]: 7%
- inhibition [2]: 0%
- inhibition [3]: 0%
- inhibition [4]: 2%
- inhibition [5]: 0%
- inhibition [6]: 0%
- inhibition [7]: 72%

- inhibition [1]: 53%
- inhibition [2]: 3%
- inhibition [3]: 0%
- inhibition [4]: 53%
- inhibition [5]: 53%
- inhibition [6]: 10%
- inhibition [7]: 75%
SMILES: CC(C)(C)OC(=O)Nc1ccc(-c2cc(/C=C3\CN4CCC3C4)on2)cc1 (configuration not stated)

SMILES: Cc1ccc(-c2cc(/C=C3\CN4CCC3CC4)on2)cc1
- inhibition [1]: 13%
- inhibition [2]: 0%
- inhibition [3]: 0%
- inhibition [4]: 0%
- inhibition [5]: 0%
- inhibition [6]: 0%
- inhibition [7]: 26%

SMILES: COc1ccc(-c2cc(/C=C3/CN4CCC3CC4)on2)cc1OC
- inhibition [1]: 71%
- inhibition [2]: 28%
- inhibition [3]: 6%
- inhibition [4]: 81%
- inhibition [5]: 46%
- inhibition [6]: 30%
- inhibition [7]: 90%

SMILES: Nc1ccc(-c2cc(/C=C3/CN4CCC3C4)on2)cc1 (configuration not stated)
- inhibition [1]: 4%
- inhibition [2]: 7%
- inhibition [3]: 0%
- inhibition [4]: 44%
- inhibition [5]: 10%
- inhibition [6]: 1%
- inhibition [7]: 49%

SMILES: COc1ccc(-c2cc(/C=C3/CN4CCC3CC4)on2)cc1
- inhibition [1]: 63%
- inhibition [2]: 23%
- inhibition [3]: 14%
- inhibition [4]: 79%
- inhibition [5]: 63%
- inhibition [6]: 16%
- inhibition [7]: 68%

SMILES: COc1ccc(-c2cc(/C=C3\CN4CCC3CC4)on2)cc1
- inhibition [1]: 19%
- inhibition [2]: 0%
- inhibition [3]: 3%
- inhibition [4]: 21%
- inhibition [5]: 18%
- inhibition [6]: 10%
- inhibition [7]: 25%

SMILES: COc1ccc(COc2ccc(-c3cc(/C=C4\CN5CCC4CC5)on3)cc2)cc1
- inhibition [1]: 46%
- IC50 [8]: 809 nM
- inhibition [2]: 77%
- inhibition [3]: 31%
- inhibition [4]: 64%
- inhibition [5]: 37%
- inhibition [6]: 55%
- inhibition [7]: 0%

Reference: ChEMBL document CHEMBL1131993, “Binding affinities of 3-(3-phenylisoxazol-5-yl)methylidene-1-azabicycles to acetylcholine receptors” (Bioorg Med Chem Lett, 1999)
